Experimental data reported in ChEMBL document CHEMBL3046044, “Evaluation of mefenamic acid mutual prodrugs” (Med Chem Res, 2013).

How the values were obtained:
[1] = Solubility of the compound in 0.1 N sodium hydroxide at 10 mg; type: physicochemical
Rattus norvegicus [2] = experiment: Anti-inflammatory activity in Rattus norvegicus Wistar albino (rat) assessed as inhibition of carrageenan-induced paw edema at 126 mg/kg, po measured at 24 hr relative to control; type: functional
[3] = Solubility of the compound in chloroform at 10 mg; type: physicochemical
[4] = n-Octanol-phosphate buffer partition coefficient, log P of the compound at pH 7.4 by HPLC method; type: physicochemical
[5] = Solubility of the compound in 0.1 N hydrochloric acid at 10 mg; type: physicochemical
Rattus norvegicus [6] = experiment: Antioxidant activity in Rattus norvegicus (rat) stomach assessed as reduction of lipid peroxidation measured MDA level per mg of protein at 800 mg/kg, po after 12 hr by TBARS assay (reference value: 4.388 +/- 0.404 nM); type: functional
[7] = Half life in Homo sapiens (human) 80% plasma at 10 mg at pH 7.4; type: ADME, cell-free; details: 80% human plasma
[8] = Solubility of the compound in benzene at 10 mg; type: physicochemical
[9] = Solubility of the compound in ethanol at 10 mg; type: physicochemical
[10] = Solubility of the compound in dichloromethane at 10 mg; type: physicochemical
[11] = Half life in hydrochloric acid buffer at 10 mg at pH 1.2; type: physicochemical
[12] = Solubility of the compound in methanol at 10 mg; type: physicochemical
Rattus norvegicus [13] = experiment: Ulcerogenicity in Rattus norvegicus (rat) stomach assessed as ulcer index at 1260 mg/kg, po after 12 hr (reference value: 3.413 +/- 2.160 no unit); type: toxicity, organism-based; parameters: dose 1260 mg/kg, route oral; details: in vivo
Rattus norvegicus [14] = experiment: Antioxidant activity in Rattus norvegicus (rat) stomach assessed as effect on catalase level measured per mg of protein at 1260 mg/kg, po after 12 hr by spectrophotometric analysis (reference value: 26.055 +/- 4.669 U); type: functional
Rattus norvegicus [15] = experiment: Anti-inflammatory activity in Rattus norvegicus Wistar albino (rat) assessed as inhibition of carrageenan-induced paw edema at 126 mg/kg, po measured at 6 hr relative to control; type: functional
Rattus norvegicus [16] = experiment: Anti-inflammatory activity in Rattus norvegicus Wistar albino (rat) assessed as inhibition of carrageenan-induced paw edema at 126 mg/kg, po measured at 3 hr relative to control; type: functional
Rattus norvegicus [17] = experiment: Inhibition of superoxide dismutase level in Rattus norvegicus (rat) stomach at 1260 mg/kg, po after 12 hr (reference value: 37.096 +/- 7.335%); type: functional
Rattus norvegicus [18] = experiment: Reduction of gastric wall mucus level in Rattus norvegicus (rat) stomach measured per mg of protein at 1260 mg/kg, po after 12 hr by alcian blue staining (reference value: 285.680 +/- 3.348 ug); type: functional
Rattus norvegicus [19] = experiment: Increase in hexosamine level in Rattus norvegicus (rat) stomach at 1260 mg/kg, po after 12 hr (reference value: 122.323 +/- 4.639 ug/ml); type: functional
Rattus norvegicus [20] = experiment: Effect on protein level in Rattus norvegicus (rat) stomach at 1260 mg/kg, po after 12 hr by Bradford method (reference value: 42.5 +/- 5.773 ug/ml); type: functional
[21] = Half life in isotonic phosphate buffer at 10 mg at pH 7.4; type: physicochemical
Mus musculus = experiment: Analgesic activity in po dosed Mus musculus Swiss albino (mouse) assessed as inhibition of acetic acid-induced writhing administered 1 hr prior to acetic acid challenge measured for 20 min relative to control; type: functional
Rattus norvegicus [22] = experiment: Anti-inflammatory activity in Rattus norvegicus Wistar albino (rat) assessed as inhibition of carrageenan-induced paw edema at 126 mg/kg, po measured at 4 hr relative to control; type: functional
Rattus norvegicus [23] = experiment: Antioxidant activity in Rattus norvegicus (rat) stomach assessed as effect on GSH level measured per 100 g of protein at 1260 mg/kg, po after 12 hr by Ellman's method (reference value: 350.735 +/- 42.887 uM); type: functional
Rattus norvegicus [24] = experiment: Antioxidant activity in Rattus norvegicus (rat) stomach assessed as effect on GSH level measured per 100 g of protein at 800 mg/kg, po after 12 hr by Ellman's method (reference value: 350.735 +/- 42.887 uM); type: functional
Rattus norvegicus [25] = experiment: Antioxidant activity in Rattus norvegicus (rat) stomach assessed as effect on catalase level measured per mg of protein at 800 mg/kg, po after 12 hr by spectrophotometric analysis (reference value: 26.055 +/- 4.669 U); type: functional
Rattus norvegicus [26] = experiment: Anti-inflammatory activity in Rattus norvegicus Wistar albino (rat) assessed as inhibition of carrageenan-induced paw edema at 80 mg/kg, po measured at 24 hr relative to control; type: functional
Rattus norvegicus [27] = experiment: Anti-inflammatory activity in Rattus norvegicus Wistar albino (rat) assessed as inhibition of carrageenan-induced paw edema at 80 mg/kg, po measured at 3 hr relative to control; type: functional
Rattus norvegicus [28] = experiment: Anti-inflammatory activity in Rattus norvegicus Wistar albino (rat) assessed as inhibition of carrageenan-induced paw edema at 80 mg/kg, po measured at 6 hr relative to control; type: functional
Rattus norvegicus [29] = experiment: Ulcerogenicity in Rattus norvegicus (rat) stomach assessed as ulcer index at 800 mg/kg, po after 12 hr (reference value: 3.413 +/- 2.160 no unit); type: toxicity, organism-based; parameters: dose 800 mg/kg, route oral; details: in vivo
Rattus norvegicus [30] = experiment: Reduction of gastric wall mucus level in Rattus norvegicus (rat) stomach measured per mg of protein at 800 mg/kg, po after 12 hr by alcian blue staining (reference value: 285.680 +/- 3.348 ug); type: functional
Rattus norvegicus [31] = experiment: Anti-inflammatory activity in Rattus norvegicus Wistar albino (rat) assessed as inhibition of carrageenan-induced paw edema at 80 mg/kg, po measured at 4 hr relative to control; type: functional
Rattus norvegicus [32] = experiment: Effect on protein level in Rattus norvegicus (rat) stomach at 800 mg/kg, po after 12 hr by Bradford method (reference value: 42.5 +/- 5.773 ug/ml); type: functional
Rattus norvegicus [33] = experiment: Antioxidant activity in Rattus norvegicus (rat) stomach assessed as reduction of lipid peroxidation measured MDA level per mg of protein at 1240 mg/kg, po after 12 hr by TBARS assay (reference value: 4.388 +/- 0.404 nM); type: functional
Rattus norvegicus [34] = experiment: Increase in hexosamine level in Rattus norvegicus (rat) stomach at 800 mg/kg, po after 12 hr (reference value: 122.323 +/- 4.639 ug/ml); type: functional
Rattus norvegicus [35] = experiment: Inhibition of superoxide dismutase level in Rattus norvegicus (rat) stomach at 800 mg/kg, po after 12 hr (reference value: 37.096 +/- 7.335%); type: functional

In the case of `Cc1cccc(Nc2ccccc2C(=O)OC2CC(C)CCC2C(C)C)c1C` (centres undefined) [Mefenamic acid-menthol], the solubility [1] is reported as “soluble”, the inhibition in vivo at 126 mg/kg (Rattus norvegicus [2]) is reported as 67.1% and the solubility [3] is reported as “soluble”. For the same molecule, the logD [4] was 4.98, the solubility [5] was “Insoluble” and the Activity (Rattus norvegicus [6]) was 16.056 nM. The half-life [7] was 1.43 h, the solubility [8] was “soluble” and the solubility [9] was “soluble”. The solubility [10] was “soluble”, the half-life [11] was 20.8 h and the solubility [12] was “soluble”. The UI (Rattus norvegicus [13]) was 5.117, the Activity (Rattus norvegicus [14]) was 23.807 U and the inhibition in vivo at 126 mg/kg (Rattus norvegicus [15]) was 51.6%. The inhibition in vivo at 126 mg/kg (Rattus norvegicus [16]) was 41.7%, the inhibition in vivo at 1260 mg/kg (Rattus norvegicus [17]) was 29.2% and the Activity (Rattus norvegicus [18]) was 227.7692 µg. The Activity (Rattus norvegicus [19]) was 144.445 µg/mL, the Activity (Rattus norvegicus [20]) was 32.083 µg/mL and the half-life [21] was 8.87 h. For the same molecule, the “inhibition (INH)” value (Mus musculus) was 55.184%, the inhibition in vivo at 126 mg/kg (Rattus norvegicus [22]) was 44.1% and the Activity (Rattus norvegicus [23]) was 261.03 µM.
For `Cc1cccc(Nc2ccccc2C(=O)O)c1C` [MEFENAMIC ACID], the solubility [1] was “soluble”, the Activity (Rattus norvegicus [24]) was 413.603 µM and the Activity (Rattus norvegicus [25]) was 4.587 U. The solubility [3] was “soluble”, the inhibition in vivo at 80 mg/kg (Rattus norvegicus [26]) was 69.1% and the inhibition in vivo at 80 mg/kg (Rattus norvegicus [27]) was 48.8%. The inhibition in vivo at 80 mg/kg (Rattus norvegicus [28]) was 64.1%, the UI (Rattus norvegicus [29]) was 10.867 and the solubility [5] was “Insoluble”. For the same molecule, the solubility [8] was “soluble”, the solubility [9] was “soluble” and the solubility [10] was “soluble”. For the same molecule, the Activity (Rattus norvegicus [30]) was 170.026 µg, the solubility [12] was “soluble” and the inhibition in vivo at 80 mg/kg (Rattus norvegicus [31]) was 50.6%. The Activity (Rattus norvegicus [32]) was 12.083 µg/mL, the Activity (Rattus norvegicus [33]) was 26.25 nM and the Activity (Rattus norvegicus [34]) was 139.224 µg/mL. For the same molecule, the inhibition in vivo at 800 mg/kg (Rattus norvegicus [35]) was 24.2% and the “inhibition (INH)” value (Mus musculus) was 63.321%.
